Experimental data: the NIST ThermoML archive (doi:10.1016/j.jct.2012.07.022)

Assay: wn = mass fraction of the nth substance listed
Conditions: 101 kPa, Liquid; for electrical conductivity: Alternating current cell with electrodes; for viscosity: Capillary tube (Ostwald / Ubbelohde) method; for mass density: Vibrating tube method

Nc1[nH]cnc2ncnc1-2 [6-amino-1H-purine] + CC(=O)[O-].CCn1cc[n+](C)c1
Conditions	electrical conductivity [S/m]	mass density [kg/m3]	viscosity [mPa·s]
298.15 K, w2 = 0	0.296	1097.6	128.5
298.15 K, w2 = 0.0482	0.209	1111.1	197.7
298.15 K, w2 = 0.1008	0.143	1124.3	318
298.15 K, w2 = 0.1514	0.0996	1135	498.1
298.15 K, w2 = 0.2055	0.0672	1146.4	823.2
298.15 K, w2 = 0.2481	0.0471	1154.5	1235.7
303.15 K, w2 = 0	0.382	1094.5	95.23
303.15 K, w2 = 0.0482	0.278	1107.9	141
303.15 K, w2 = 0.1008	0.197	1121.1	218
303.15 K, w2 = 0.1514	0.142	1131.7	328.1
303.15 K, w2 = 0.2055	0.0995	1143	517.9
303.15 K, w2 = 0.2481	0.0718	1151.2	748.9
308.15 K, w2 = 0	0.48	1091.4	72.42
308.15 K, w2 = 0.0482	0.362	1104.9	103.7
308.15 K, w2 = 0.1008	0.264	1118	154.8
308.15 K, w2 = 0.1514	0.196	1128.6	224.7
308.15 K, w2 = 0.2055	0.142	1139.8	341.2
308.15 K, w2 = 0.2481	0.105	1147.9	477.5
313.15 K, w2 = 0	0.594	1088.4	56.38
313.15 K, w2 = 0.0482	0.459	1101.9	78.37
313.15 K, w2 = 0.1008	0.346	1114.9	113.4
313.15 K, w2 = 0.1514	0.262	1125.5	159.6
313.15 K, w2 = 0.2055	0.194	1136.6	233.9
313.15 K, w2 = 0.2481	0.148	1144.7	318.1
318.15 K, w2 = 0	0.827	1085.3	44.79
318.15 K, w2 = 0.0482	0.571	1098.8	60.64
318.15 K, w2 = 0.1008	0.439	1111.9	85.36
318.15 K, w2 = 0.1514	0.34	1122.4	116.8
318.15 K, w2 = 0.2055	0.259	1133.5	166
318.15 K, w2 = 0.2481	0.202	1141.6	220.1
323.15 K, w2 = 0	0.986	1082.3	36.23
323.15 K, w2 = 0.0482	0.695	1095.8	47.91
323.15 K, w2 = 0.1008	0.546	1108.9	65.78
323.15 K, w2 = 0.1514	0.431	1119.4	87.9
323.15 K, w2 = 0.2055	0.336	1130.4	121.4
323.15 K, w2 = 0.2481	0.267	1138.5	157.4
328.15 K, w2 = 0	–	1079.3	29.78
328.15 K, w2 = 0.0482	–	1092.9	38.55
328.15 K, w2 = 0.1008	–	1105.9	51.75
328.15 K, w2 = 0.1514	–	1116.4	67.64
328.15 K, w2 = 0.2055	–	1127.5	91.14
328.15 K, w2 = 0.2481	–	1135.4	115.9
333.15 K, w2 = 0	–	1076.2	24.82
333.15 K, w2 = 0.0482	–	1089.9	31.51
333.15 K, w2 = 0.1008	–	1102.9	41.48
333.15 K, w2 = 0.1514	–	1113.4	53.16
333.15 K, w2 = 0.2055	–	1124.5	70.05
333.15 K, w2 = 0.2481	–	1132.5	87.5
338.15 K, w2 = 0	–	1073.3	20.95
338.15 K, w2 = 0.0482	–	1086.9	26.14
338.15 K, w2 = 0.1008	–	1099.9	33.78
338.15 K, w2 = 0.1514	–	1110.4	42.55
338.15 K, w2 = 0.2055	–	1121.5	54.95
338.15 K, w2 = 0.2481	–	1129.5	67.57
343.15 K, w2 = 0	–	1070.3	17.88
343.15 K, w2 = 0.0482	–	1083.9	21.96
343.15 K, w2 = 0.1008	–	1096.9	27.91
343.15 K, w2 = 0.1514	–	1107.4	34.61
343.15 K, w2 = 0.2055	–	1118.5	43.91
343.15 K, w2 = 0.2481	–	1126.4	53.21
